Tests used:
[1] = target: Kappa-type opioid receptor (Cavia porcellus, UniProt P41144); experiment: Binding affinity was determined towards opioid receptor kappa 1 using [3H]U-69593 as radioligand
Mu-type opioid receptor [2] = target: T1, Mu-type opioid receptor (Cavia porcellus, UniProt P97266); experiment: Binding affinity was determined towards opioid receptor mu1 using [3H]DAMGO as radioligand
[3] = Binding affinity was determined towards Opioid receptor delta 1 using [3H]naltrindole as radioligand
Mu-type opioid receptor [4] = target: T1, Mu-type opioid receptor; experiment: Binding affinity towards Opioid receptor mu 1 using [3H]DAMGO as radioligand

Chain of Kappa-type opioid receptor (P41144 whole entry): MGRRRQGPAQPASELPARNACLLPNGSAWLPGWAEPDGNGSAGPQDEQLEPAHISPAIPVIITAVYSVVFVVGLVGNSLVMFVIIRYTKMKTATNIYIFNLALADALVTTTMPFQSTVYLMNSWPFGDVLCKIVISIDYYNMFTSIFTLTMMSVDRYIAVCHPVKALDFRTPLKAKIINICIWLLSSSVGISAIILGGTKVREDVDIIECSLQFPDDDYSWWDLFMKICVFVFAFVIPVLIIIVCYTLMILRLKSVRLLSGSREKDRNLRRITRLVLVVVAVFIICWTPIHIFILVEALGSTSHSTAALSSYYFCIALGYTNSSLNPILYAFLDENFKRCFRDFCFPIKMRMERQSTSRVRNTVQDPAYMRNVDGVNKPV
T1 sequence (P97266 whole entry): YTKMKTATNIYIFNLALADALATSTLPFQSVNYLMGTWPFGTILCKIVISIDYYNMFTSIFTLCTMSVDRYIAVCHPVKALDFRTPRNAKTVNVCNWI

CC[C@@]12CCN(CC3CC3)C(C(=O)c3ccc(NC=O)cc31)[C@@H]2C
Ki [1]: 1.2 nM
Ki (Mu-type opioid receptor [2]): 6.1 nM

C[C@H]1[C@H]2Cc3ccc(O)cc3C1(C)CCN2CC1CC1 (single isomer, unassigned) [CYCLAZOCINE]
Ki [3]: 1.1 nM

C[C@H]1[C@H]2Cc3ccc(NC=O)cc3[C@]1(C)CCN2CC1CC1
Ki [1]: 0.49 nM
Ki (Mu-type opioid receptor [2]): 1.1 nM

C[C@H]1C2Cc3ccc(NC(=O)c4ccccc4)cc3[C@@]1(C)CCN2CC1CC1
Ki [1]: 820 nM
Ki (Mu-type opioid receptor [2]): 570 nM

O=CNc1ccc2c3c1O[C@H]1C(=O)CC[C@@]4(O)[C@@H](C2)N(CC2CC2)CC[C@]314
Ki [1]: 4.2 nM
Ki (Mu-type opioid receptor [2]): 8.3 nM

C[C@H]1C2Cc3ccc(NCc4ccccc4)cc3[C@@]1(C)CCN2CC1CC1
Ki (Mu-type opioid receptor [4]): ~1.3 nM

NC(=O)c1ccc2c3c1O[C@H]1C(=O)CC[C@@]4(O)[C@@H](C2)N(CC2CC2)CC[C@]314
Ki [3]: 110 nM

C[C@H]1C2Cc3ccc(NC=O)cc3[C@@]1(C)CCN2CC1CC1
Ki [1]: 0.85 nM
Ki (Mu-type opioid receptor [2]): 1.9 nM

CC[C@@]12CCN(CC3CC3)C(C(=O)c3ccc(C(N)=O)cc31)[C@@H]2C
Ki [3]: 9.8 nM

C[C@H]1C2Cc3ccc(C(N)=O)cc3[C@@]1(C)CCN2CC1CC1
Ki [3]: 8.3 nM

C[C@H]1[C@H]2Cc3ccc(Nc4ccccc4)cc3[C@@]1(C)CCN2CC1CC1
Ki (Mu-type opioid receptor [4]): ~1.3 nM

C[C@@H]1C2Cc3ccc(NC=O)cc3C1(C)CCN2CC1CC1 (single isomer, unassigned)
Ki [1]: 900 nM
Ki (Mu-type opioid receptor [2]): 2300 nM

C[C@H]1C2Cc3ccc(N(C)C=O)cc3[C@@]1(C)CCN2CC1CC1
Ki [1]: 200 nM
Ki (Mu-type opioid receptor [2]): 550 nM

CC(=O)Nc1ccc2c(c1)[C@@]1(C)CCN(CC3CC3)C(C2)[C@@H]1C
Ki [1]: 130 nM
Ki (Mu-type opioid receptor [2]): 240 nM

Nc1ccc2c3c1O[C@H]1C(=O)CC[C@@]4(O)[C@@H](C2)N(CC2CC2)CC[C@]314
Ki [1]: 5.8 nM
Ki (Mu-type opioid receptor [2]): 5.6 nM
